# Where two headings read alike, the source gives them in different places. Where a SMILES comes first, the peptide text is derived from it. Bridges are numbered along the chain shown (N, C = ends).
# Columns and labels:
# patients with HRS-1 [1] = test: ACLF grade and respiratory failure with terlipressin, double-blind placebo-controlled trial (Example 3); type: in vivo, human
# Experimental: In FIG. 6B, the incidence of respiratory failure was based on CLIF-SOFA score definition of respiratory failure.
# The study was a double-blind placebo-controlled trial. […] HRS-1 was defined as rapidly rising serum creatinine (SCr) to ≥2.25 mg/dl in <14 days without response to volume challenge or evidence of structural renal disease.
# All patients were assessed for organ failure (OF) per EASL-CLIF criteria and then classified into grades of acute-on-chronic liver failure (ACLF). All patients had at minimum grade 1 ACLF due to the presence of HRS-1; grades 2 and 3 ACLF represent 2 or 3 OFs respectively. Patients were separated into into grade≤2 and grade 3 ACLF subgroups.
# QTc interval = test: Cardiac electrophysiology in 41 patients with HRS-1; type: in vivo, human; details: 1 mg terlipressin acetate every 6 hours up to 14 days; Fridericia correction
# Source text: Increases of the mean QTc interval of <10 ms were reported.
# CYP enzymes = test: CYP inhibition and induction in human liver microsomes; type: in vitro ADME
# Source text: (§1) No significant drug-drug interactions are anticipated with terlipressin (TERLIVAZ).
# [2] = tested on: human ABC and SLC transporters; test: Transporter inhibition and substrate studies; type: in vitro ADME
# Source text: as §1
# [3] = Metabolism in blood or plasma
# Source text: Once formed, lysine-vasopressin is metabolized by body tissue via various peptidase-mediated routes.
# pregnant guinea pigs = details: doses lower than the maximum recommended human dose of 4 mg/day; cited from earlier work
# rabbits = details: increased resorptions, implantation loss, fetal anomalies and deformities; cited from earlier work
# patients = details: voluntary reports; cited from earlier work
# pregnant women = details: single intravenous or intranasal dose, first trimester; cited from earlier work
# [4] = background statement; cited from earlier work
# mouse = test: In vivo mouse micronucleus assay
# bacterial = test: In vitro bacterial reverse mutation assay
# [5] = Pharmacokinetics and excretion in healthy subjects
# mammalian cell (CHO) = test: In vitro mammalian cell (CHO) chromosome aberration assay
# [6] = Pharmacokinetic modeling with sparse PK samples from 69 patients with HRS-1; details: for AUC(0-t) / Cmax: iv
# patients with HRS-1 [7] = test: CONFIRM randomized, placebo-controlled, double-blind study of terlipressin plus albumin; details: for between-group difference in the incidence of respiratory failure SAEs / between-group difference in the incidence of respiratory failure fatal AEs: terlipressin minus placebo
# Experimental: In particular, HRS-1 was defined based on modified prior criteria outlined by the International Club of Ascites (ICA), as rapidly deteriorating renal function to SCr≥2.25 mg/dl, with actual or projected doubling of SCr within 2 weeks, without improvement in renal function (<20% decrease in SCr 48 hours after both diuretic withdrawal and albumin-fluid challenge) in adult patients with cirrhosis and ascites. […] Treatment was continued to Day 14 unless the following occurred: verified HRS reversal (VHRSR), renal replacement therapy (RRT), liver transplantation (LT) or SCr at or above baseline (BL) at Day 4. VHRSR, the primary endpoint, was defined as 2 consecutive SCr values≤1.5 mg/dl, at least 2 hours apart, with subjects alive without RRT for at least 10 days after the second SCr≤1.5 mg/dL; HRS reversal (HRSR) was a decrease in SCr to ≤1.5 mg/dL. Secondary end points included HRS reversal (any SCr value 1.5 mg/dL or less during treatment), HRS reversal without RRT by day 30, HRS reversal in patients with systemic inflammatory response syndrome, and verified HRS reversal without recurrence by day 30.
# The patients were at least 18 years of age, with cirrhosis, ascites, and rapidly progressive renal failure, with a SCr doubling to at least 2.25 mg/dL within 14 days. Major exclusion criteria included SCr of greater than 7.0 mg/dL, one or more large-volume paracenteses of 4 L or more within 2 days of randomization, evidence of parenchymal renal diseases or obstructive uropathy, or presence of sepsis and/or uncontrolled bacterial infection. Patients with severe cardiovascular disease or recent (within 4 weeks) renal replacement therapy (RRT) were excluded.
# 300 subjects were enrolled in the study. […] Patients were stratified by qualifying SCr (less than 3.4 mg/dL or 3.4 mg/dL or greater) and pre-enrollment large-volume paracentesis (at least one single event of 4 L or greater, or less than 4 L within 3 to 14 days prior to randomization).
# A baseline SCr value was assessed before the patients received the assigned treatment. […] In keeping with current guidelines, it was strongly recommended that albumin (1 g/kg to a maximum of 100 g, on day 1 and 20 to 40 g/day thereafter) be administered to all subjects. If SCr decreased <30% from the baseline value on Day 4, after a minimum of 10 doses of study drug, dose increase to 2 mg every 6 hours (±30 minutes) (8 mg/day) was mandated, except in subjects with coronary artery disease or in the setting of circulatory overload, pulmonary edema, or bronchospasm. Dose resumption was permitted after interruption for adverse events except for cardiac or mesenteric ischemia, for which treatment was permanently discontinued.
# The primary efficacy end point was the incidence of verified HRS reversal, defined as the percentage of patients with two consecutive SCr values no greater than 1.5 mg/dl at least 2 hours apart, while remaining alive without RRT for at least 10 days after achieving verified HRS reversal, while excluding SCr values after RRT, transjugular intrahepatic portosystemic shunt, liver transplant, or open-label vasopressor from primary end point analysis.
# Secondary efficacy end points included incidence of HRS reversal, defined as the percentage of patients with an on-treatment SCr value of 1.5 mg/dl or less; durability of HRS reversal, defined as the percentage of patients with HRS reversal without RRT to day 30; incidence of HRS reversal among patients with systemic inflammatory response syndrome; and incidence of verified HRS reversal without HRS recurrence by day 30.
# [8] = human, in vivo
# clinical = details: human, in vivo; for AUC(0-t) / Cmax: iv
structure (smiles),measurement,setting,value
"NCCCC[C@H](NC(=O)[C@@H]1CCCN1C(=O)[C@@H]1CSSC[C@H](NC(=O)CNC(=O)CNC(=O)CN)C(=O)N[C@@H](Cc2ccc(O)cc2)C(=O)N[C@@H](Cc2ccccc2)C(=O)N[C@@H](CCC(N)=O)C(=O)N[C@@H](CC(N)=O)C(=O)N1)C(=O)NCC(N)=O [Terlipressin, N—[N—(N-glycylglycyl)glycyl]-8-L-lysinevasopressin] (H-GGGCYFQNCPKG-NH2; disulfide 4-9 (inferred))",percent of patients with respiratory failure,"patients with HRS-1 [1]; ACLF 3, FIG. 6C, investigator reported",much higher than placebo
same,"incidence of respiratory failure, baseline to end of treatment","patients with HRS-1 [1]; FIGS. 6A-6B, CLIF-SOFA definition",increased incidence of respiratory failure
same,Increases of the mean QTc interval,QTc interval,< 10 ms
same,QTc changes from baseline,QTc interval,No clinically meaningful changes from baseline
same,"direct-, time-, or metabolism dependent inhibitor and inducer of CYP enzymes",CYP enzymes,little or no evidence
same,inhibitor and substrate of human ABC and SLC transporters,[2],little or no evidence
same,metabolism in blood or plasma,[3],not metabolized in blood or plasma
same,reproductive toxicity finding,pregnant guinea pigs,marked decrease in blood flow to the uterus and placenta
same,reproductive toxicity finding,rabbits,embryotoxic and teratogenic
same,Adverse reactions reported from postmarketing experience,patients,"headache hyponatremia, skin necrosis and gangrene"
same,effect in pregnancy,pregnant women,induced uterine contractions and endometrial ischemia
same,duration of action,[4],2 to 10 h
same,half-life,[4],6 h
same,mutagenicity / clastogenicity,mouse,not mutagenic or clastogenic
same,mutagenicity / clastogenicity,bacterial,not mutagenic or clastogenic
same,dose-dependent changes in the elimination rate constant,[5],no dose-dependent changes
same,pharmacokinetic linearity,[5],linear pharmacokinetics
same,mutagenicity / clastogenicity,mammalian cell (CHO),not mutagenic or clastogenic
same,median Cave at steady state,[6]; 1 mg IV injection of terlipressin acetate,14.2 ng/mL
same,mean Cave,[6]; 1 mg dose of terlipressin acetate IV,about 14.2 ng/ml
same,Vd,"[6]; human, in vivo",6.3 L
same,clearance,"[6]; human, in vivo, 1 mg, clearance (derived typical population PK parameter), 1 mg terlipressin acetate",457 mL/min
same,clearance,"[6]; human, in vivo, clearance, typical population PK parameter (range)",413 to 518 mL/min
same,AUC(0-t),"[6]; human, in vivo, 1 mg, AUC24h (range), 1 mg dose of terlipressin acetate IV",61.2 to 246 ng·h/mL
same,Cmax,"[6]; human, in vivo, 1 mg, Cmax (range), 1 mg dose of terlipressin acetate IV",37.1 to 143 ng/mL
same,AUC(0-t),"[6]; human, in vivo, 1 mg, mean AUC24h, 1 mg dose of terlipressin acetate IV",~123 ng·h/mL
same,Cmax,"[6]; human, in vivo, 1 mg, mean Cmax, 1 mg dose of terlipressin acetate IV",~70.5 ng/mL
same,AUC(0-t),"[6]; human, in vivo, 1 mg, median AUC24h at steady state, 1 mg IV injection of terlipressin acetate",123 ng·h/mL
same,Cmax,"[6]; human, in vivo, 1 mg, median Cmax at steady state, 1 mg IV injection of terlipressin acetate",70.5 ng/mL
same,half-life,"[6]; human, in vivo, terminal half-life",~0.9 h
same,Treatment discontinuation due to adverse events,patients with HRS-1 [7]; 24/200 patients,12.0%
same,most common adverse events that led to discontinuation,patients with HRS-1 [7]; in vivo,"respiratory failure, abdominal pain, and intestinal ischemia/obstruction"
same,subjects listed at baseline who did not receive a transplant and died by Day 90 (pre-transplant mortality),"patients with HRS-1 [7]; mitigated population, 4 subjects",11.4%
same,AE leading to death up to 30 days post-treatment: Respiratory failure,"patients with HRS-1 [7]; mitigated population, N = 132",5.3 % of Subjects
same,Any AE leading to death up to 30 days post-treatment,"patients with HRS-1 [7]; mitigated population, N = 132",34.1 % of Subjects
same,Death by Day 30,"patients with HRS-1 [7]; mitigated population, N = 132",31.8 % of Subjects
same,Death by Day 60,"patients with HRS-1 [7]; mitigated population, N = 132",40.2 % of Subjects
same,Death by Day 90,"patients with HRS-1 [7]; mitigated population, N = 132",44.7 % of Subjects
same,Serior Adverse Events,"patients with HRS-1 [7]; mitigated population, N = 132",61.4 % of Subjects
same,Serious adverse events: Respiratory failure,"patients with HRS-1 [7]; mitigated population, N = 132",9.8 % of Subjects
same,Any AE leading to death up to 30 days post-treatment,"patients with HRS-1 [7]; mitigated population, N = 132, listed as terlipressin",31.8 % of Subjects
same,subjects listed at baseline who did not receive a transplant and died by Day 90 (pre-transplant mortality),"patients with HRS-1 [7]; overall population, 12 subjects",21.4%
same,AE leading to death up to 30 days post-treatment: Respiratory failure,"patients with HRS-1 [7]; overall population, N = 200",8.5 % of Subjects
same,Any AE leading to death up to 30 days post-treatment,"patients with HRS-1 [7]; overall population, N = 200",41.5 % of Subjects
same,Death by Day 30,"patients with HRS-1 [7]; overall population, N = 200",39.0 % of Subjects
same,Death by Day 60,"patients with HRS-1 [7]; overall population, N = 200",47.0 % of Subjects
same,Death by Day 90,"patients with HRS-1 [7]; overall population, N = 200",51.0 % of Subjects
same,Serior Adverse Events,"patients with HRS-1 [7]; overall population, N = 200",65.0 % of Subjects
same,Serious adverse events: Respiratory failure,"patients with HRS-1 [7]; overall population, N = 200",13.5 % of Subjects
same,Any AE leading to death up to 30 days post-treatment,"patients with HRS-1 [7]; overall population, N = 200, listed as terlipressin",39.0 % of Subjects
same,Adverse reaction: Abdominal pain,"patients with HRS-1 [7]; patients (percent), N = 200",39 (19.5)
same,Adverse reaction: Bradycardia,"patients with HRS-1 [7]; patients (percent), N = 200",10 (5.0)
same,Adverse reaction: Diarrhea,"patients with HRS-1 [7]; patients (percent), N = 200",26 (13.0)
same,Adverse reaction: Dyspnea,"patients with HRS-1 [7]; patients (percent), N = 200",25 (12.5)
same,Adverse reaction: Fluid overload,"patients with HRS-1 [7]; patients (percent), N = 200",17 (8.5)
same,Adverse reaction: Nausea,"patients with HRS-1 [7]; patients (percent), N = 200",32 (16.0)
same,Adverse reaction: Pleural effusion,"patients with HRS-1 [7]; patients (percent), N = 200",11 (5.5)
same,Adverse reaction: Respiratory failure,"patients with HRS-1 [7]; patients (percent), N = 200",31 (15.5)
same,Adverse reaction: Sepsis,"patients with HRS-1 [7]; patients (percent), N = 200",11 (5.5)
same,Adverse reaction: Ischemia-related events,"patients with HRS-1 [7]; patients (percent), N = 200, skin discoloration, cyanosis, ischemia and intestinal ischemia",9 (4.5)
same,serious or fatal respiratory failure,patients with HRS-1 [7]; primary clinical trial,14%
same,between-group difference in the incidence of respiratory failure SAEs,patients with HRS-1 [7]; mitigated population,2.8%
same,between-group difference in the incidence of respiratory failure fatal AEs,patients with HRS-1 [7]; mitigated population,3.9%
same,between-group difference in the incidence of respiratory failure fatal AEs,patients with HRS-1 [7]; overall population,7.5%
same,between-group difference in the incidence of respiratory failure SAEs,patients with HRS-1 [7]; overall study population,8.4%
NCCCC[C@H](NC(=O)[C@@H]1CCCN1C(=O)[C@@H]1CSSC[C@H](N)C(=O)N[C@@H](Cc2ccc(O)cc2)C(=O)N[C@@H](Cc2ccccc2)C(=O)N[C@@H](CCC(N)=O)C(=O)N[C@@H](CC(N)=O)C(=O)N1)C(=O)NCC(N)=O [lysine-vasopressin],pharmacokinetic linearity,[8],linear pharmacokinetics
same,Vd,clinical,1370 L
same,clearance,"clinical; 1 mg, clearance (derived typical population PK parameter)",5300 mL/min
same,clearance,"clinical; clearance, typical population PK parameter (range)",4720 to 6050 mL/min
same,AUC(0-t),"clinical; 1 mg, AUC24h (range)",3.78 to 33.5 ng·h/mL
same,Cmax,"clinical; 1 mg, Cmax (range)",0.4 to 3.36 ng/mL
same,AUC(0-t),"clinical; 1 mg, mean AUC24h",11.2 ng·h/mL
same,Cmax,"clinical; 1 mg, mean Cmax",~1.2 ng/mL
same,AUC(0-t),"clinical; 1 mg, median AUC24h at steady state",11.2 ng·h/mL
same,Cmax,"clinical; 1 mg, median Cmax at steady state",1.2 ng/mL
same,half-life,clinical; terminal half-life,~3 h
NC(=O)CC[C@@H]1NC(=O)[C@H](Cc2ccccc2)NC(=O)[C@H](Cc2ccc(O)cc2)NC(=O)[C@@H](N)CSSC[C@@H](C(=O)N2CCC[C@H]2C(=O)N[C@@H](CCCN=C(N)N)C(=O)NCC(N)=O)NC(=O)[C@H](CC(N)=O)NC1=O [vasopressin],duration of action,[4],0.5 to 1 h
same,half-life,[4],0.1 h

# — US20250276033A1, “COMPOSITIONS FOR IMPROVING KIDNEY FUNCTION IN PATIENTS WITH HEPATORENAL SYNDROME” (Mallinckrodt Pharmaceuticals Ireland Limited, priority 2022, published 2025)
